Inconclusive results are not listed. Active and inactive are the calls of the source.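 How the source made its calls: active means fitted curve falls past -35% at a concentration up to twice the top valid dose; inconclusive means no clear call, values can overlap the other calls; inactive means signal rising instead of falling, plus the rest.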

Here are results for 67 compounds from PubChem BioAssay AID743470 (Broad Institute, 2014).

Test [1] in a line: HEK293 cell cytotoxicity, dose response, cytotoxicity control, luminescence, dry powder, set 15 (AID 743470). Particulars: HEK293T viability, CellTiter-Glo ATP luminescence, 72 h. A general note: Cellular ATP, detected with luciferase, serves as a proxy for viable cell number.
Test [2] deals with HEK293T viability, CellTiter-Glo ATP luminescence, 72 h. The test is described as above.

For the compound `COc1ccc(C(=O)CC2(O)C(=O)Nc3c(Cl)ccc(Cl)c32)cc1` (stereo not drawn), the activity change, negative = cytotoxicity in test [1] (at 12 µM (top of the series)) was -19.6% (inactive).
In the case of `N#CC1=C(N)Oc2cc(N)ccc2C1c1ccc2ccccc2c1` (stereo not drawn), the activity change, negative = cytotoxicity in test [1] (at 26 µM (top of the series)) is -9.63% (inactive).
Consider `Cc1cc(Nc2cc(N3CCN(C)CC3)nc(Sc3ccc(NC(=O)C4CC4)cc3)n2)n[nH]1`, for which the AC35 in test [2] is 3.09 µM.
For `COc1ccc(NC(=O)Nc2ccc3c(c2)C(=O)N([C@@H](C)CO)C[C@H](C)[C@H](CN(C)Cc2ccc4c(c2)OCO4)O3)cc1`, the activity change, negative = cytotoxicity in test [1] (at 12 µM (top of the series)) is 20.2% (inactive).
On to `CN(C(=O)CCCOc1ccc2[nH]c(=O)ccc2c1)C1CCCCC1`, for which, in test [1] (at 26 µM (top of the series)), the activity change, negative = cytotoxicity is 27% (inactive).
With `Nc1ncnc2c1c(-c1cccc(OCc3ccccc3)c1)cn2C1CC(CN2CCCC2)C1` (stereo not drawn), the AC35 in test [2] is 9.93 µM.
For `COc1ccc(-c2cc(NC=O)c3ncc(-c4ccc(OC)c(OC)c4)n3c2)cc1`, in test [2], the AC35 is 5.61 µM.
As for `COc1cc(Nc2ncc3c(n2)-c2ccc(Cl)cc2C(c2c(F)cccc2OC)=NC3)ccc1C(=O)O`, the activity change, negative = cytotoxicity in test [1] (at 26 µM (top of the series)) is 24.7% (inactive).
Take `N#CC1=C(N)Oc2cc(N)ccc2C1c1cccc(F)c1` (stereo not drawn): the AC35 in test [2] is 4.67 µM.
Regarding `COc1cc([C@@H]2c3cc4c(cc3[C@@H](O[C@@H]3O[C@@H]5CO[C@@H](C)O[C@H]5[C@H](O)[C@H]3O)[C@H]3COC(=O)[C@H]23)OCO4)cc(OC)c1O`, in test [1] (at 1.35 µM (top of the series)), the activity change, negative = cytotoxicity was -29% (inactive).
As to `N#CC1=C(N)Oc2cc(O)ccc2C1c1cccc(Br)c1` (stereo not drawn), in test [1] (at 26 µM (top of the series)), the activity change, negative = cytotoxicity was -24.3% (inactive).
Consider `COc1ccccc1-c1nnc2n1N=C(c1ccc3c(c1)OCO3)CS2`, for which, in test [1] (at 26 µM (top of the series)), the activity change, negative = cytotoxicity is -39.2% (inactive).
On to `N#CC1=C(N)Oc2cc(N)ccc2C1c1ccccc1` (stereo not drawn), for which the AC35 in test [2] is 17.4 µM.
With `N#CC1=C(N)Oc2cc(N)ccc2C1c1ccc(Cl)cc1` (stereo not drawn), the activity change, negative = cytotoxicity in test [1] (at 26 µM (top of the series)) is -11.1% (inactive).
As to `CC1(C)CC(c2nc(-c3ccc4ccc(-c5ccccc5)nc4c3)c3c(N)nccn23)C1`, the AC35 in test [2] was 4.66 µM.
Regarding `CCC(C)C(=O)OC1CC(C)C=C2C=CC(C)C(CCC(O)CC(O)CC(=O)O)C21` (stereo not drawn), in test [1] (at 50 µM (top of the series)), the activity change, negative = cytotoxicity was 55.2% (inactive).
On to `N#Cc1ccc(-c2ccc3c(c2)[C@H]2[C@H](CCN2S(=O)(=O)c2ccccc2F)[C@@H](CO)N3)cc1`, for which the activity change, negative = cytotoxicity in test [1] (at 26 µM (top of the series)) is -7.37% (inactive).
Same read-out and setting: as for `COc1ccc(-c2ccc3c(c2)[C@H]2[C@H](CCN2S(=O)(=O)c2ccc(OC)cc2)[C@@H](CO)N3)cc1`, the figure is -6.28% (inactive).
Regarding `COc1ccc(S(=O)(=O)N2CC[C@@H]3[C@@H](CO)N(C)c4ccc(-c5ccc(F)cc5)cc4[C@@H]32)cc1`, the activity change, negative = cytotoxicity in test [1] (at 8 µM (top of the series)) is 0.125% (inactive).
For `Nc1ccn([C@@H]2O[C@H](CO)[C@H](O)C2O)c(=O)n1` (stereo partly drawn), the AC35 in test [2] is 3.18 µM.
Consider `CN1CCN(CCOc2cc(OC3CCOCC3)c3c(Nc4c(Cl)ccc5c4OCO5)ncnc3c2)CC1`, for which the AC35 in test [2] was 23.8 µM.
The same measure, in the same setting: next, `CC(C)(O)CCc1ccc(O)c2c(=O)c3c(O)c4c(cc3oc12)O[C@H]1OC=C[C@@]41O`: 0.0808 µM; `COc1ccc(C2=Nn3c(nnc3-c3ccccc3Cl)SC2)cc1OC`: 6.79 µM.
As to `COc1ccc(CNc2nc(N3CCC[C@H]3CO)ncc2C(=O)NCc2ncccn2)cc1Cl`, the activity change, negative = cytotoxicity in test [1] (at 26 µM (top of the series)) is -1.87% (inactive).
Consider `CC(C)N1c2ccccc2C(c2ccc(F)cc2)C1/C=C/C(O)CC(O)CC(=O)O` (stereo not drawn), for which the AC35 in test [2] is 4.91 µM.
As for `CCCCc1ccc2nc(NC(=O)OC)[nH]c2c1`, in test [1] (at 26 µM (top of the series)), the activity change, negative = cytotoxicity was -29.4% (inactive).
On to `Cc1ccc(C2C(C#N)=C(N)Oc3cc(N)ccc32)cc1` (stereo not drawn), for which the activity change, negative = cytotoxicity in test [1] (at 26 µM (top of the series)) was -10.5% (inactive).
Consider `CCc1c2c(nc3ccc(O)cc13)-c1cc3c(c(=O)n1C2)COC(=O)C3(O)CC` (stereo not drawn), for which the AC35 in test [2] is 0.0239 µM.
On to `O=C(c1cc(Cc2n[nH]c(=O)c3ccccc23)ccc1F)N1CCN(C(=O)C2CC2)CC1`, for which the activity change, negative = cytotoxicity in test [1] (at 110 µM (top of the series)) is 31.3% (inactive).
With `COc1ccc(OC)c(-c2nnc3n2N=C(c2ccc(OC)c(OC)c2)CS3)c1`, the activity change, negative = cytotoxicity in test [1] (at 12 µM (top of the series)) is -29.9% (inactive); in test [1] (at 26 µM (top of the series)) it was -31.5% (inactive).
As to `N#CC1=C(N)Oc2cc3c(cc2C1c1cccc(Br)c1)OCO3` (stereo not drawn), the activity change, negative = cytotoxicity in test [1] (at 26 µM (top of the series)) is -44.4% (inactive).
Consider `COc1ccc(-c2cc(NC(C)=O)c3ncc(-c4ccc(OC)c(OC)c4)n3c2)cc1`, for which the activity change, negative = cytotoxicity in test [1] (at 26 µM (top of the series)) is -25.2% (inactive).
For the compound `Cc1nc(Nc2ncc(C(=O)Nc3c(C)cccc3Cl)s2)cc(N2CCN(CCO)CC2)n1`, in test [2], the AC35 is 38.2 µM.
The same measure, in the same setting: next, `COc1ccc(C2=Nn3c(nnc3-c3ccccc3OC)SC2)cc1OC`: 0.377 µM; `CN(C)c1ccc2c(c1)OC(N)=C(C#N)C2c1cccc(F)c1` (stereo not drawn): 0.586 µM.
In the case of `O=C(Nc1c(Cl)cncc1Cl)c1ccc(OC(F)F)c(OCC2CC2)c1`, the activity change, negative = cytotoxicity in test [1] (at 26 µM (top of the series)) was -18.6% (inactive).
Take `Cc1ccc([N+](=O)[O-])cc1S(=O)(=O)N(C)C`: the activity change, negative = cytotoxicity in test [1] (at 26 µM (top of the series)) is -23.2% (inactive).
`COc1cccc(C2C(C#N)=C(N)Oc3cc(N)ccc32)c1` (stereo not drawn): the activity change, negative = cytotoxicity in test [1] (at 26 µM (top of the series)) is -23.2% (inactive).
For the compound `COc1ccccc1S(=O)(=O)N1CC[C@@H]2[C@@H](CO)Nc3ccc(-c4ccc(C#N)cc4)cc3[C@@H]21`, the activity change, negative = cytotoxicity in test [1] (at 26 µM (top of the series)) is -22.8% (inactive).
Still for that read-out and setting: as for `COc1ccc(-c2ccc3c(c2)[C@H]2[C@H](CCN2S(=O)(=O)c2ccc(OC)cc2)[C@@H](CO)N3C)cc1`, the figure is -44.3% (inactive).
`CC[C@@]1(O)C(=O)OCc2c1cc1n(c2=O)Cc2cc3c(CN(C)C)c(O)ccc3nc2-1`: the AC35 in test [2] is 0.181 µM.
`Clc1ccccc1-c1nnc2n1N=C(c1ccc3c(c1)OCO3)CS2`: in test [2], the AC35 is 3.54 µM.
Take `N#CC1=C(N)Oc2ccc3ccccc3c2C1c1cccc(F)c1` (stereo not drawn): the activity change, negative = cytotoxicity in test [1] (at 26 µM (top of the series)) is -9.08% (inactive).
`N#Cc1ccc(-c2ccc3c(c2)[C@H]2[C@H](CCN2S(=O)(=O)c2cccc(F)c2)[C@@H](CO)N3)cc1`: the activity change, negative = cytotoxicity in test [1] (at 26 µM (top of the series)) is -39.9% (inactive).
For `Cc1ccccc1C1C(C#N)=C(N)Oc2cc(N)ccc21` (stereo not drawn), the activity change, negative = cytotoxicity in test [1] (at 26 µM (top of the series)) is -16.9% (inactive).
Still for that read-out and setting: next, `Cc1ccc(S(=O)(=O)N2CC[C@@H]3[C@@H](CO)Nc4ccc(-c5ccc(C#N)cc5)cc4[C@@H]32)cc1`: 17.9% (inactive).
On to `COc1ccc(S(=O)(=O)N2CC[C@@H]3[C@@H](CO)Nc4ccc(-c5ccc(C#N)cc5)cc4[C@@H]32)cc1`, for which the AC35 in test [2] is 6.16 µM.
Take `COc1ccc(C2=Nn3c(nnc3-c3ccccc3)SC2)cc1OC`: the activity change, negative = cytotoxicity in test [1] (at 26 µM (top of the series)) is -1.77% (inactive).
Take `CCC(C)(C)C(=O)O[C@H]1C[C@@H](C)C=C2C=C[C@H](C)[C@H](CC[C@@H]3C[C@@H](O)CC(=O)O3)[C@H]21`: the activity change, negative = cytotoxicity in test [1] (at 6 µM (top of the series)) is 11.4% (inactive).
Turning to `Cc1c([C@H](C(Cl)Cl)[C@H](O)[C@H]2C[C@H](C)C(=O)O2)ccc2c1C(=O)[C@H]1[C@H]2C[C@@H](Br)[C@@]23O[C@@H](CO[C@H]2O)C[C@]13C`, the activity change, negative = cytotoxicity in test [1] (at 26 µM (top of the series)) was -35.3% (inactive).
Still for that read-out and setting: as for `COc1ccc(C2CNC(=O)C2)cc1OC1CCCC1` (stereo not drawn), the figure is -2.74% (inactive).
With `CCN(CCO)CCCOc1ccc2c(Nc3cc(CC(=O)Nc4cccc(F)c4)[nH]n3)ncnc2c1`, the activity change, negative = cytotoxicity in test [1] (at 1.6 µM (top of the series)) was 43.7% (inactive).
As to `Clc1ccc(-c2cnc3ccc(-c4ccccc4)cn23)cc1`, the activity change, negative = cytotoxicity in test [1] (at 6 µM (top of the series)) was 7.25% (inactive).
As for `C[C@]1(c2nc3c(C(N)=O)cccc3[nH]2)CCCN1`, the activity change, negative = cytotoxicity in test [1] (at 26 µM (top of the series)) was -21.6% (inactive).
Take `COc1ccc(C2=Nn3c(nnc3-c3ccccc3F)SC2)cc1OC`: the activity change, negative = cytotoxicity in test [1] (at 8 µM (top of the series)) is -35.4% (inactive).
As for `N#CC1=C(N)Oc2cc(OC(=O)c3ccccc3)ccc2C1c1cccc(Br)c1` (stereo not drawn), the activity change, negative = cytotoxicity in test [1] (at 26 µM (top of the series)) was -25.6% (inactive).
With `N#CC1=C(N)Oc2cc(N)ccc2C1c1cccc(Br)c1` (stereo not drawn), the activity change, negative = cytotoxicity in test [1] (at 26 µM (top of the series)) was -38% (inactive).
Still for that read-out and setting: as for `CN1c2ccc(-c3ccc(C#N)cc3)cc2[C@H]2[C@H](CCN2S(=O)(=O)c2cccc(F)c2)[C@H]1CO`, the figure is -71.9% (inactive); as for `COC(=O)c1ccc(C2C(C#N)=C(N)Oc3cc(N)ccc32)cc1` (stereo not drawn), 19.4% (inactive); as for `CN1c2ccc(-c3ccc(C#N)cc3)cc2[C@H]2[C@H](CCN2S(=O)(=O)c2ccc(F)cc2)[C@H]1CO`, 13.6% (inactive).
Take `O=P1(NCCCl)OCCCN1CCCl` (stereo not drawn): the activity change, negative = cytotoxicity in test [1] (at 50 µM (top of the series)) was 9.21% (inactive).
Consider `COc1ccc(C2C(C#N)=C(N)Oc3cc(N)ccc32)cc1` (stereo not drawn), for which, in test [1] (at 26 µM (top of the series)), the activity change, negative = cytotoxicity was -0.135% (inactive).
For the compound `COc1ccc(S(=O)(=O)N2CC[C@@H]3[C@H](CO)Nc4ccc(-c5ccc(C#N)cc5)cc4[C@@H]32)cc1`, the activity change, negative = cytotoxicity in test [1] (at 8 µM (top of the series)) is -17.6% (inactive).
For the compound `COc1ccc(S(=O)(=O)N2CC[C@@H]3[C@@H](CO)Nc4ccc(-c5cccc(C#N)c5)cc4[C@@H]32)cc1`, the activity change, negative = cytotoxicity in test [1] (at 26 µM (top of the series)) is -20.5% (inactive).
In the case of `N#CC1=C(N)Oc2cc(N)ccc2C12C(=O)Nc1ccc(Br)cc12` (stereo not drawn), in test [1] (at 26 µM (top of the series)), the activity change, negative = cytotoxicity was 5.19% (inactive).
`COc1cccc(S(=O)(=O)N2CC[C@@H]3[C@@H](CO)Nc4ccc(-c5ccc(C#N)cc5)cc4[C@@H]32)c1`: the activity change, negative = cytotoxicity in test [1] (at 26 µM (top of the series)) was -26.5% (inactive).
Still for that read-out and setting: next, `Cc1cccc(C2C(C#N)=C(N)Oc3cc(N)ccc32)c1` (stereo not drawn): -30.4% (inactive).
